Measurements published in patent US20240318196A1, “BRASSICA EVENT MON94100 AND METHODS OF USE THEREOF” (Monsanto Technology LLC, priority 2018, published 2024).

Experiments:
[1] = system: Plants comprising Brassica Event MON94100; experiment: Volunteer control: greenhouse plant injury rate after synthetic auxin herbicide spray; type: in vivo; settings: for Plant Injury Rates (%) After Herbicide Spray, MON94100: sprayed at V3 stage, 9 days after treatment, greenhouse
Description: (§1) Plants comprising Brassica Event MON94100 and non-transgenic plants of the same germplasm as a control were grown in a greenhouse in a randomized complete block design. Plants were sprayed at V3 stage with one of four synthetic auxin herbicides: dicamba (as XtendiMax®), 2,4-D amine 4 (dimethylamine salt of 2,4-dichlorophenoxyacetic acid), bromoxynil (3,5-dibromo-4-hydroxybenzonitrile as Buctril®), and MCPA amine (4-chloro-2-methylphenoxy acetic acid) in a randomized pattern. Plant injury rate was taken at 9 days after treatment.

[2] = system: non-transgenic plants of the same germplasm; experiment: as above; type: in vivo, Brassica; settings: for Plant Injury Rates (%) After Herbicide Spray, Control: sprayed at V3 stage, 9 days after treatment, greenhouse
Description: as §1

| Structure (SMILES) | Plant Injury Rates (%) After Herbicide Spray, MON94100 ([1]; 1× rate) | Plant Injury Rates (%) After Herbicide Spray, MON94100 ([1]; 2× rate) | Plant Injury Rates (%) After Herbicide Spray, Control ([2]; 1× rate) | Plant Injury Rates (%) After Herbicide Spray, Control ([2]; 2× rate) | Plant injury rate ([1]; commercial rate (1X), sprayed at V3, 9 days after treatment, plants comprising Brassica Event MON94100) | Plant injury rate ([2]; commercial rate (1X), sprayed at V3, 9 days after treatment, control plants) |
| --- | --- | --- | --- | --- | --- | --- |
| CNC.O=C(O)COc1ccc(Cl)cc1Cl [2,4-D amine, dimethylamine salt of 2,4-dichlorophenoxyacetic acid] | 74.5% | 83.5% | 73.0% | 82.0% |  |  |
| Cc1cc(Cl)ccc1OCC(=O)O [MCPA, 4-chloro-2-methylphenoxy acetic acid] | 73.0% | 86.5% | 71.5% | 85.0% |  |  |
| N#Cc1cc(Br)c(O)c(Br)c1 [bromoxynil, 3,5-dibromo-4-hydroxybenzonitrile] | 80.5% | 90.3% | 83.3% | 90.6% |  |  |
| COc1c(Cl)ccc(Cl)c1C(=O)O [dicamba, 3,6-dichloro-2-methoxybenzoic acid] | 0.0% |  | 21.3% |  | no injury | 21.3% |
